Measured values reported in patent publication US10858335B2 (Rigel Pharmaceuticals, Inc., priority 2014, dated 2020).

Test system: GDF8 signaling (p-SMAD-3 (Ser423/425))
Experiment: AlphaScreen SureFire SMAD3 (p-Ser423/425) assay, GDF8-stimulated cells (GDF pSMAD)
Assay type: cell-based
Details: Mus musculus, MPC-11, MPC11; GDF8-stimulated; p-SMAD3 AlphaScreen; read-out: GDF pSMAD (MPC11) (inhibition of GDF8 signaling)

Row | SMILES | IC50
1 | Cc1cc(-c2ncccc2-c2ccn3c(C(=O)NCCCN(C)C)ncc3c2)ccc1F [compound 267, N-(3-(Dimethylamino)propyl)-7-(2-(4-fluoro-3-methylphenyl)pyridin-3-yl)imidazo[1,5-a]pyridine-3-carboxamide] | 6.76 µM
2 | Cc1cc(-c2ncccc2-c2ccn3c(C(=O)NCCN(C)C)ncc3c2)ccc1F [compound 268, N-(2-(Dimethylamino)ethyl)-7-(2-(4-fluoro-3-methylphenyl)pyridin-3-yl)imidazo[1,5-a]pyridine-3-carboxamide] | 14.4 µM
3 | Cc1cc(-c2ncccc2-c2ccc3cnc(C(=O)NCCN4CCOCC4)n3c2)ccc1F [compound 271, 6-(2-(4-Fluoro-3-methylphenyl)pyridin-3-yl)-N-(2-morpholinoethyl)imidazo[1,5-a]pyridine-3-carboxamide] | 4.44 µM
4 | Cc1cc(-c2ncccc2-c2ccc3cnc(C(=O)NCCN4CCCC4)n3c2)ccc1F [compound 272, 6-(2-(4-Fluoro-3-methylphenyl)pyridin-3-yl)-N-(2-(pyrrolidin-1-yl)ethyl)imidazo[1,5-a]pyridine-3-carboxamide] | 3.4 µM
5 | Cc1cc(-c2ncccc2-c2ccc3cnc(C(=O)NCCCN4CCCC4)n3c2)ccc1F [compound 273, 6-(2-(4-Fluoro-3-methylphenyl)pyridin-3-yl)-N-(3-(pyrrolidin-1-yl)propyl)imidazo[1,5-a]pyridine-3-carboxamide] | 9.79 µM
6 | Cc1cc(-c2ncccc2-c2ccn3c(C(=O)NCCCN4CCCC4=O)ncc3c2)ccc1F [compound 274, 7-(2-(4-Fluoro-3-methylphenyl)pyridin-3-yl)-N-(3-(2-oxopyrrolidin-1-yl)propyl)imidazo[1,5-a]pyridine-3-carboxamide] | 14.8 µM
7 | Cc1cc(-c2ncccc2-c2ccc3cnc(-c4ccncc4)n3c2)ccc1F [compound 282, 6-(2-(4-Fluoro-3-methylphenyl)pyridin-3-yl)-3-(pyridin-4-yl)imidazo[1,5-a]pyridine] | 19.4 µM
8 | Cc1cc(-c2ncccc2-c2ccc3cnc(-c4cccc(N)c4)n3c2)ccc1F [compound 283, 3-(6-(2-(4-Fluoro-3-methylphenyl)pyridin-3-yl)imidazo[1,5-a]pyridin-3-yl)aniline] | 17.7 µM
9 | COc1cccc(-c2ncc3cc(-c4cccnc4-c4ccc(F)c(C)c4)ccn23)c1 [compound 286, 7-(2-(4-Fluoro-3-methylphenyl)pyridin-3-yl)-3-(3-methoxyphenyl)imidazo[1,5-a]pyridine] | 12 µM
10 | Cc1cc(-c2nc3c(cc2-c2ccc4ncccc4c2)NC(=O)CO3)ccc1F [compound 293, 6-(4-Fluoro-3-methylphenyl)-7-(quinolin-6-yl)-1H-pyrido[2,3-b] [1,4]oxazin-2(3H)-one] | 5.54 µM
11 | Cc1cc(-c2nc3c(cc2-c2ccc4[nH]ncc4c2)N(C)CCO3)ccc1F [compound 300, 6-(4-Fluoro-3-methylphenyl)-7-(1H-indazol-5-yl)-1-methyl-2,3-dihydro-1H-pyrido[2,3-b][1,4]oxazine] | 12.8 µM
12 | Cc1cc(-c2ncc(NCc3ccc(C#N)cc3)cc2-c2ccc3nccnc3c2)ccc1F [compound 308, 4-(((6-(4-Fluoro-3-methylphenyl)-5-(quinoxalin-6-yl)pyridin-3-yl)amino)methyl)benzonitrile] | 4.81 µM
13 | Cc1cc(-c2ncc(Nc3ccncc3)cc2-c2ccc3ncsc3c2)ccc1F [compound 311, 5-(Benzo[d]thiazol-6-yl)-6-(4-fluoro-3-methylphenyl)-N-(pyridin-4-yl)pyridin-3-amine] | 4.72 µM
14 | Cc1cc(-c2ncc(NC(=O)CCN3CCOCC3)cc2-c2ccc3ncsc3c2)ccc1F [compound 312, N-(5-(Benzo[d]thiazol-6-yl)-6-(4-fluoro-3-methylphenyl)pyridin-3-yl)-3-morpholinopropanamide] | 7.54 µM
15 | Cc1cc(-c2ncc(NC(=O)c3ccncc3)cc2-c2ccc3ncsc3c2)ccc1F [compound 314, N-(5-(Benzo[d]thiazol-6-yl)-6-(4-fluoro-3-methylphenyl)pyridin-3-yl)isonicotinamide] | 5.34 µM
16 | CCCC(=O)Nc1cnc(-c2ccc(F)c(C)c2)c(-c2ccc3ncsc3c2)c1 [compound 316, N-(5-(Benzo[d]thiazol-6-yl)-6-(4-fluoro-3-methylphenyl)pyridin-3-yl)butyramide] | 6.39 µM
17 | Cc1cc(-c2ncc(NC(=O)CCCc3ccncc3)cc2-c2ccc3ncsc3c2)ccc1F [compound 317, N-(5-(Benzo[d]thiazol-6-yl)-6-(4-fluoro-3-methylphenyl)pyridin-3-yl)-4-(pyridin-4-yl)butanamide] | 5.5 µM
18 | Cc1cc(-c2ncc(N3CCN(C)CC3)cc2-c2ccc3ncsc3c2)ccc1F [compound 319, 6-(2-(4-Fluoro-3-methylphenyl)-5-(4-methylpiperazin-1-yl)pyridin-3-yl)benzo[d]thiazole] | 10.6 µM

These reach a lower IC50. Values come first.

Row | IC50 | SMILES
19 | 1.38 µM | Cc1cc(-c2ncccc2-c2ccc3cncn3c2)ccc1F [compound 269, 6-(2-(4-Fluoro-3-methylphenyl)pyridin-3-yl)imidazo[1,5-a]pyridine]
20 | 2.95 µM | Cc1cc(-c2ncccc2-c2ccn3c(C(=O)NCCN4CCOCC4)ncc3c2)ccc1F [compound 275, 7-(2-(4-Fluoro-3-methylphenyl)pyridin-3-yl)-N-(2-morpholinoethyl)imidazo[1,5-a]pyridine-3-carboxamide]
21 | 1.67 µM | Cc1cc(-c2ncccc2-c2ccn3c(C(=O)NCCCn4ccnc4)ncc3c2)ccc1F [compound 277, N-(3-(1H-Imidazol-1-yl)propyl)-7-(2-(4-fluoro-3-methylphenyl)pyridin-3-yl)imidazo[1,5-a]pyridine-3-carboxamide]
22 | 2.23 µM | Cc1cc(-c2ncccc2-c2ccn3c(C(=O)NCCCN4CCCC4)ncc3c2)ccc1F [compound 278, 7-(2-(4-Fluoro-3-methylphenyl)pyridin-3-yl)-N-(3-(pyrrolidin-1-yl)propyl)imidazo[1,5-a]pyridine-3-carboxamide]
23 | 1.3 µM | Cc1cc(-c2ncccc2-c2ccc3ncc(-c4ccc(S(N)(=O)=O)cc4)n3c2)ccc1F [compound 281, 4-(6-(2-(4-Fluoro-3-methylphenyl)pyridin-3-yl)imidazo[1,2-a]pyridin-3-yl)benzenesulfonamide]
24 | 3.03 µM | Cc1cc(-c2ncccc2-c2ccn3c(-c4ccncc4)ncc3c2)ccc1F [compound 287, 7-(2-(4-Fluoro-3-methylphenyl)pyridin-3-yl)-3-(pyridin-4-yl)imidazo[1,5-a]pyridine]
25 | 1.23 µM | Nc1nc2ccc(-c3cccnc3-c3ccc(F)c(Cl)c3)cn2n1 [compound 291, 6-(2-(3-Chloro-4-fluorophenyl)pyridin-3-yl)-[1,2,4]triazolo[1,5-a]pyridin-2-amine]
26 | 1.74 µM | Cc1cc(-c2nc3c(cc2-c2ccc4ncsc4c2)NC(=O)CO3)ccc1F [compound 292, 7-(Benzo[d]thiazol-6-yl)-6-(4-fluoro-3-methylphenyl)-1H-pyrido[2,3-b] [1,4]oxazin-2(3H)-one]
27 | 2.26 µM | Nc1nccc2ccc(-c3cccnc3-c3ccc(F)c(Cl)c3)cc12 [compound 297, 7-(2-(3-Chloro-4-fluorophenyl)pyridin-3-yl)isoquinolin-1-amine]
28 | 0.999 µM | Cc1cc(-c2ncccc2-c2ccc3ccnc(N)c3c2)ccc1F [compound 298, 7-(2-(4-Fluoro-3-methylphenyl)pyridin-3-yl)isoquinolin-1-amine]
29 | 0.345 µM | Nc1nc2ccc(-c3cccnc3-c3cccc(Cl)c3)nc2s1 [compound 301, 5-(2-(3-Chlorophenyl)pyridin-3-yl)thiazolo[5,4-b]pyridin-2-amine]
30 | 0.795 µM | Nc1nc2ccc(-c3cccnc3-c3ccc(F)c(Cl)c3)nc2s1 [compound 302, 5-(2-(3-Chloro-4-fluorophenyl)pyridin-3-yl)thiazolo[5,4-b]pyridin-2-amine]
31 | 0.0947 µM | Cc1cc(-c2ncccc2-c2ccc3ncsc3n2)ccc1F [compound 303, 5-(2-(4-Fluoro-3-methylphenyl)pyridin-3-yl)thiazolo[5,4-b]pyridine]
32 | 0.0853 µM | Cc1cccc(-c2ncccc2-c2ccc3ncsc3n2)c1 [compound 304, 5-(2-(m-Tolyl)pyridin-3-yl)thiazolo[5,4-b]pyridine]
33 | 0.175 µM | Fc1ccc(-c2ncccc2-c2ccc3ncsc3n2)cc1Cl [compound 305, 5-(2-(3-Chloro-4-fluorophenyl)pyridin-3-yl)thiazolo[5,4-b]pyridine]
34 | 0.129 µM | Cc1cc(-c2ncc(NCc3cccnc3)cc2-c2ccc3ncsc3c2)ccc1F [compound 306, 5-(Benzo[d]thiazol-6-yl)-6-(4-fluoro-3-methylphenyl)-N-(pyridin-3-ylmethyl)pyridin-3-amine]
35 | 2.22 µM | Cc1cc(-c2ncc(NCc3ccc(C(N)=O)cc3)cc2-c2ccc3nccnc3c2)ccc1F [compound 307, 4-(((6-(4-Fluoro-3-methylphenyl)-5-(quinoxalin-6-yl)pyridin-3-yl)amino)methyl)benzamide]
36 | 1.48 µM | Cc1cc(-c2ncc(NCc3ccc(C#N)cc3)cc2-c2ccc3ncsc3c2)ccc1F [compound 309, 4-(((5-(Benzo[d]thiazol-6-yl)-6-(4-fluoro-3-methylphenyl)pyridin-3-yl)amino)methyl)benzonitrile]
37 | 1.14 µM | Cc1cc(-c2ncc(Nc3ccc(C(N)=O)cc3)cc2-c2ccc3ncsc3c2)ccc1F [compound 310, 4-((5-(Benzo[d]thiazol-6-yl)-6-(4-fluoro-3-methylphenyl)pyridin-3-yl)amino)benzamide]
38 | 0.749 µM | Cc1cc(-c2ncc(NC(=O)c3cccnc3)cc2-c2ccc3ncsc3c2)ccc1F [compound 315, N-(5-(Benzo[d]thiazol-6-yl)-6-(4-fluoro-3-methylphenyl)pyridin-3-yl)nicotinamide]
39 | 1.3 µM | Cc1cc(-c2ncc(-c3ccc(C(N)=O)cc3)cc2-c2ccc3ncsc3c2)ccc1F [compound 318, 4-(5-(Benzo[d]thiazol-6-yl)-6-(4-fluoro-3-methylphenyl)pyridin-3-yl)benzamide]
40 | 2.99 µM | Cc1cc(-c2ncc(NCCCN3CCN(C)CC3)cc2-c2ccc3ncsc3c2)ccc1F [compound 320, 5-(Benzo[d]thiazol-6-yl)-6-(4-fluoro-3-methylphenyl)-N-(3-(4-methylpiperazin-1-yl)propyl)pyridin-3-amine]
